The values below come from ChEMBL document CHEMBL4350955, “Novel Chemical Series of 5-Lipoxygenase-Activating Protein Inhibitors for Treatment of Coronary Artery Disease” (J Med Chem, 2019).

Molecules are shown by their SMILES.

The target of data set [1] is T1, Arachidonate 5-lipoxygenase-activating protein (Homo sapiens, UniProt P20292).
T1 sequence (P20292 whole entry): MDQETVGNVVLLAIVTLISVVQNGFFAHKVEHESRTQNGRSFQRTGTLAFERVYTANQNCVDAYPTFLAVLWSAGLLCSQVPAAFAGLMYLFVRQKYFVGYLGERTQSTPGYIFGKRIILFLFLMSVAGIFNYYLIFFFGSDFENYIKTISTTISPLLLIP
Briefly: (§1) Inhibition of FLAP in human whole blood assessed as reduction in calcium ionophore-stimulated LTB4 production preincubated for 30 mins followed by calcium ionophore stimulation and measured after 20 mins by EIA. In kind it is tissue-based.

The target in data set [2] is T2, Arachidonate 5-lipoxygenase-activating protein (Homo sapiens) (UniProt P20292).
T2 sequence (whole entry): T1 sequence (P20292 whole entry)
The data set is described as §1. Type of data set: tissue-based.

Data set [3] has as its target T1, Arachidonate 5-lipoxygenase-activating protein. Briefly: Inhibition of [3H]MK0591 binding to human FLAP expressed in […] cell membranes measured after 60 to 80 mins by scintillation counting method.
Data set [4] is described as follows: Distribution coefficient between octanol and sodium phosphate buffer, logD of the compound in pH 7.4 buffer by LC-MS/MS-based shake flask method.
A short description of data set [5]: Intrinsic clearance in cryopreserved human hepatocytes assessed as per million cells at 1 uM measured up to 60 mins by LC-MS/MS analysis. The settings on record: read-out: CLH. In kind it is ADME, cell-based, Hepatocyte.

As to `Cc1nn(C)cc1NC(=O)[C@H]1CCCC[C@@H]1C(=O)c1ccc(-c2cc[nH]n2)cc1`, the half-maximal inhibitory concentration (IC50) was 7940 nM in data set [1] and 2000 nM in data set [3]. Moreover, the fpIC50 in data set [2] was determined as 5.8.

Turning to `Cc1nn(C)cc1NC(=O)[C@@H]1CCCC[C@H]1C(=O)c1ccc(-c2cc[nH]n2)nc1` (racemic), the IC50 was 3980 nM in data set [1] and 1000 nM in data set [3]. In addition, the fpIC50 in data set [2] is 5.8. This molecule also registered a logD in data set [4] of 1.8.

Take `Cc1nn(C)cc1N(C)C(=O)[C@@H]1CCCC[C@H]1C(=O)c1ccc(-c2cc[nH]n2)cc1`: the IC50 is 251 nM in data set [1] and 200 nM in data set [3]. Also, the fpIC50 in data set [2] worked out at 7.5. In data set [4], this molecule registered a logD of 3.

`Cc1cnn(-c2ccc(C(=O)[C@@H]3CCCC[C@H]3C(=O)Nc3cccc(C(N)=O)c3)cc2)c1` (racemic): the results for the IC50 in data set [1] and in data set [3] were 2000 nM and 316 nM, respectively. Further, in data set [2], the fpIC50 was 7.4. For the same molecule, in data set [4], the logD came to 3.6.

On to `Cc1nn(C)cc1NC(=O)[C@@H]1CCCC[C@H]1C(=O)c1ccc(-c2cc[nH]n2)cc1` (racemic), for which the fpIC50 in data set [2] was 7.1.

In turn, `Cc1nn(C)cc1NC(=O)[C@@H]1CCCC[C@H]1C(=O)c1ccc(-c2ccc[nH]2)cc1` (racemic) gave an IC50 in data set [3] of 1000 nM. The same molecule returned a logD in data set [4] of 3.1.

On to `Cc1cc(-c2cc[nH]n2)ccc1C(=O)[C@@H]1CCCC[C@H]1C(=O)Nc1cn(C)nc1C` (racemic), for which the IC50 is 794 nM in data set [1] and 1000 nM in data set [3]. Besides, the fpIC50 in data set [2] turned out to be 6.9. The logD in data set [4] is 3.

Consider `Cc1nn(C)cc1NC(=O)[C@@H]1[C@H]2CC[C@H](CC2)[C@H]1C(=O)c1ccc(-c2cc[nH]n2)cc1F` (racemic), for which the IC50 in data set [1] was 200 nM; in data set [3], 63.1 nM. The fpIC50 in data set [2] is 7.1. The molecule further displayed a logD in data set [4] of 4.

As for `CC(=O)c1cccc(-c2ccc(C(=O)[C@@H]3CCCC[C@H]3C(=O)Nc3c(C)noc3C)cc2)c1` (racemic), the IC50 in data set [3] is 2510 nM. The same molecule came in with a logD in data set [4] of 3.9.

With `Cc1cc(-c2ccc(C(=O)[C@@H]3CCCC[C@H]3C(=O)Nc3cn(C)nc3C(N)=O)cc2)[nH]n1`, the fpIC50 in data set [2] amounted to 7.9.

For the molecule `Cc1nn(C)cc1NC(=O)[C@@H]1CCCC[C@H]1C(=O)c1ccc(-c2cc[nH]n2)cc1` [listing 1 of 2 here], in data set [2], the fpIC50 came to 7.4.

As for `O=C(NCCc1ccccn1)[C@@H]1CCCC[C@H]1C(=O)c1ccc(-c2cc[nH]n2)cc1`, the IC50 in data set [1] is 2510 nM; in data set [3], 251 nM. Also, the fpIC50 in data set [2] was found to be 6.7. The logD in data set [4] amounted to 3.

With `Cc1nn(C)cc1NC(=O)[C@@H]1CCCC[C@H]1C(=O)c1ccc(-c2ccnn2C)cc1` (racemic), the figures for the IC50 in data set [1] and in data set [3] were 31600 nM and 25100 nM, respectively. For the same molecule, the fpIC50 in data set [2] stood at 5.1. The molecule also showed a logD in data set [4] of 2.5.

`Cc1c[nH]nc1-c1ccc(C(=O)[C@@H]2CCCC[C@H]2C(=O)Nc2cn(C)nc2C)cc1` (racemic): the IC50 in data set [3] was 1000 nM. The same molecule came in with a logD in data set [4] of 3.1.

For `Cc1nn(C)cc1NC(=O)[C@@H]1CCCC[C@H]1C(=O)c1ccc(-c2cc[nH]n2)cc1` [listing 2 of 2 here], the IC50 in data set [1] was 200 nM; in data set [3], 50.1 nM.

In the case of `Cc1nn(C)cc1NC(=O)[C@@H]1CCCC[C@H]1C(=O)c1ccc(-c2ccccn2)cc1` (racemic), the IC50 in data set [1] was 2000 nM; in data set [3] it was 501 nM. Moreover, the fpIC50 in data set [2] was 6.8. In addition, the logD in data set [4] amounted to 2.8.

Turning to `Cn1cc(NC(=O)[C@@H]2CCCC[C@H]2C(=O)c2ccc(-c3cc[nH]n3)cc2)c(OC(F)F)n1`, the fpIC50 in data set [2] worked out at 8.5.

Turning to `Cc1noc(C)c1NC(=O)[C@@H]1CCCC[C@H]1C(=O)c1ccc(-c2cc[nH]n2)cc1` (racemic), the results for the IC50 in data set [1] and in data set [3] were 501 nM and 200 nM, respectively. Also, in data set [5], the hepatocyte CLint at 1 µM came to 6 µL/min/1e6 cells.
